SMILES strings stand for the structures. Read-outs that look alike come from different tables or passages of the source.

Series [1] addresses soluble human BACE1 catalytic domain (Homo sapiens (Human), UniProt P56817). The experiment in a line: BACE1 HTRF FRET Assay.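 Note: cleavage of a quenched APP Swedish mutant peptide (QSY7 quencher, Europium donor) measured as rise in 620 nm fluorescence after 1.5 h at 30 °C, inhibition suppresses signal.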 The class given is biochemical. Particulars: Ki calculated from IC50 with Cheng-Prusoff equation.
Series [2] has as its target BACE1 (Aβ40 in HEK293-APPswe/lon cells) (Homo sapiens (Human), UniProt P56817). Put plainly: BACE Inhibitor Whole Cell IC50 Determination Using HEK293-APPswe/lon Cells (Aβ40). The class given is cell-based. Particulars: 4 hours.
The target in a further series is CYP2D6 (Homo sapiens (Human), UniProt P10635). Put plainly: CYP Inhibition Assay, CYP2D6. It counts as in vitro ADME. Conditions: human liver microsomes. In general terms: Liver microsomes are vesicles of endoplasmic reticulum, rich in cytochrome P450 enzymes.
The target of another series is CYP3A4 (Homo sapiens (Human), UniProt P08684). The experiment in a line: CYP Inhibition Assay, CYP3A4.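 Note: CYP probe substrate held near its Km, inhibition judged from metabolite formation quantified by LC-MS/MS against a standard curve.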 The class given is in vitro ADME. Particulars: human liver microsomes.
Another series has as its target CYP2C9 (Homo sapiens (Human), UniProt P11712). Put plainly: CYP Inhibition Assay, CYP2C9.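 Note: probe substrate held close to its Km, with metabolite formation quantified by LC-MS/MS against a calibration curve.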 Particulars: human liver microsomes. The class given is in vitro ADME.
The target of series [3] is T1, hERG (Homo sapiens (Human), UniProt Q12809). The experiment in a line: hERG screening, Rubidium Efflux (hERG-CHO cells). It counts as cell-based. Particulars: CHO cells expressing hERG; for inhibition at 30 min, 1.5 uG/mL: pH 7.4, 1.5 uG/mL, read-out: HERG Rb efflux % Inhib 1.5 uG/mL; for inhibition at 30 min, 5 uG/mL: pH 7.4, 5 uG/mL, read-out: HERG Rb efflux % Inhib 5 uG/mL.

A further series deals with human liver Cathepsin D (Homo sapiens (Human), UniProt P07339). Put plainly: Human Cathepsin D FRET Assay. It counts as biochemical. Conditions: selectivity with respect to Cathepsin D vs BACE1.
Series [4] has as its target T1, hERG. Put plainly: hERG screening, IonWorks Quattro (hERG L929 cells). The class given is cell-based. Conditions: L929 cells expressing hERG; for inhibition at 5 min, 1 uM: read-out: HERG Ionworks % Inhib 1 uM; for inhibition at 5 min, 10 uM: read-out: HERG Ionworks % Inhib 10 uM.
The mark [5] stands for this setting: 30 min pre-incubation with NADPH, read-out: CYP 2D6 IC50 pre.
[6] abbreviates: co-incubation, read-out: CYP 2D6 IC50 co.
[7] abbreviates: 30 min pre-incubation with NADPH, read-out: CYP 3A4 IC50 pre.
Where [8] appears, read: co-incubation, read-out: CYP 3A4 IC50 co.
[9] abbreviates: 30 min pre-incubation with NADPH, read-out: CYP 2C9 IC50 pre.
The mark [10] stands for this setting: co-incubation, read-out: CYP 2C9 IC50 co.

Sequence of soluble human BACE1 catalytic domain (P56817 75-416): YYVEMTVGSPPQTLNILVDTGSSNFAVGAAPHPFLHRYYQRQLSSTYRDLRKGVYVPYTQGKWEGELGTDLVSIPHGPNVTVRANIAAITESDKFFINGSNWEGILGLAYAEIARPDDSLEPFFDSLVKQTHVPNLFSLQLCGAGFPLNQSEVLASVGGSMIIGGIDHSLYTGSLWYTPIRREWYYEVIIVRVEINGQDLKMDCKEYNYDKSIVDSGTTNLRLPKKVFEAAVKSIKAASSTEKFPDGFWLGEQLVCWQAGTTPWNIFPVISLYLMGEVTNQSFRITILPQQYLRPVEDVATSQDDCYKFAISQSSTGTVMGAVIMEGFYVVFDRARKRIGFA
Sequence of CYP2D6 (P10635 whole entry): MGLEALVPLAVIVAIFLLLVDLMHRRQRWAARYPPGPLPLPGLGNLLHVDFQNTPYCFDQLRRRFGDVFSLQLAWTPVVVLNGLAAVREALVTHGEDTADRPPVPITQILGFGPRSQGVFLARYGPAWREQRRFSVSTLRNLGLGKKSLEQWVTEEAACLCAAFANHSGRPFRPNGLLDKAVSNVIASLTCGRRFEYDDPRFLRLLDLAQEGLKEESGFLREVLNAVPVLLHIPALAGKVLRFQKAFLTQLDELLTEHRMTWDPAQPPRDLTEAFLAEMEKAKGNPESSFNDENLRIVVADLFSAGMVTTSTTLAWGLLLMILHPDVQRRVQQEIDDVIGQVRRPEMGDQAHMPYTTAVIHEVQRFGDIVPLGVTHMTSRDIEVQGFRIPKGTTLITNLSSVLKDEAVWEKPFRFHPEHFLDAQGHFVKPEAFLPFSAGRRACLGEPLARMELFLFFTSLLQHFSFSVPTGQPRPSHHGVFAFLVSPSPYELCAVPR
Sequence of CYP2C9 (P11712 whole entry): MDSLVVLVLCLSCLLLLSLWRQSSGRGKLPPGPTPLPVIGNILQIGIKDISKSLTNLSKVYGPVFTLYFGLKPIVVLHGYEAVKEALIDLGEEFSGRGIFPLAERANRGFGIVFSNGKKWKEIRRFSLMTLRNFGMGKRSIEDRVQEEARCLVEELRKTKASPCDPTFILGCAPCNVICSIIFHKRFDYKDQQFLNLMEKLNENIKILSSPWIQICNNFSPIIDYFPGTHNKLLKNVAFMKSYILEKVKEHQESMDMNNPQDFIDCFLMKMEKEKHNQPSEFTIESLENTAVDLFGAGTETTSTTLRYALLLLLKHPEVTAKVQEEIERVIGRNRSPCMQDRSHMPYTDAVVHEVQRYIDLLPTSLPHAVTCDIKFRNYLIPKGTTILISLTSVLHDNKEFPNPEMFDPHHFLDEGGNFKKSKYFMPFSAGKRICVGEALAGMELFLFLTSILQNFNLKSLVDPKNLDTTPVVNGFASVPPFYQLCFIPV
Sequence of BACE1 (Aβ40 in HEK293-APPswe/lon cells) (P56817 46-501): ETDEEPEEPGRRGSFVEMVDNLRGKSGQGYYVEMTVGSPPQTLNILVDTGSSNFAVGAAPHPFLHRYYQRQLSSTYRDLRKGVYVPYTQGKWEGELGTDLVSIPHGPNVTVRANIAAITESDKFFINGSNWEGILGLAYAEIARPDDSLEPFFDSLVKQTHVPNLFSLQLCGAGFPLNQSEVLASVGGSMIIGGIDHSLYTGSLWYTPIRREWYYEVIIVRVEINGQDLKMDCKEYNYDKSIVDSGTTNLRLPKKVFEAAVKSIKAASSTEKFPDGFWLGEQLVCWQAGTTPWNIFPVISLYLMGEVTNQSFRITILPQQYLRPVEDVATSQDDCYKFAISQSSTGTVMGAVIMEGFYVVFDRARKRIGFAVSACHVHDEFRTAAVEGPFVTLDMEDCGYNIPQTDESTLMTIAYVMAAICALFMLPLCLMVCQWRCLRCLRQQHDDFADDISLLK
Sequence of human liver Cathepsin D (P07339 65-412): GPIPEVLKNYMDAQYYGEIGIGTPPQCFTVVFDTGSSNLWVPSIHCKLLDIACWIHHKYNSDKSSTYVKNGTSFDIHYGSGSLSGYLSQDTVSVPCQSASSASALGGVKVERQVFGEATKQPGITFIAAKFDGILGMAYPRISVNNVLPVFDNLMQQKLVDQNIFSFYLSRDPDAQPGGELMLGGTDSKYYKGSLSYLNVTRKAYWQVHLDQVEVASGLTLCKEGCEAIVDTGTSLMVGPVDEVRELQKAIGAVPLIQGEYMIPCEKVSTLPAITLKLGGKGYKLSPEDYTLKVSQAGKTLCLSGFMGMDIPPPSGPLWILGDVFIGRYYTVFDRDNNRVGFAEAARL
Sequence of human liver Cathepsin D (P07339 169-412): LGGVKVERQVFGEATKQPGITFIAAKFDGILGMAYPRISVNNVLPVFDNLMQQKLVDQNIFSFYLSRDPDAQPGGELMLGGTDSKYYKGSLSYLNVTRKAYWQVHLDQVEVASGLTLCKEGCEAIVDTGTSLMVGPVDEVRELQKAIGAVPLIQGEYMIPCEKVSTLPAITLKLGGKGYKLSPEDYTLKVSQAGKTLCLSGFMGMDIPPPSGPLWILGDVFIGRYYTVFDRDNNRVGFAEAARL
Sequence of CYP3A4 (P08684 whole entry): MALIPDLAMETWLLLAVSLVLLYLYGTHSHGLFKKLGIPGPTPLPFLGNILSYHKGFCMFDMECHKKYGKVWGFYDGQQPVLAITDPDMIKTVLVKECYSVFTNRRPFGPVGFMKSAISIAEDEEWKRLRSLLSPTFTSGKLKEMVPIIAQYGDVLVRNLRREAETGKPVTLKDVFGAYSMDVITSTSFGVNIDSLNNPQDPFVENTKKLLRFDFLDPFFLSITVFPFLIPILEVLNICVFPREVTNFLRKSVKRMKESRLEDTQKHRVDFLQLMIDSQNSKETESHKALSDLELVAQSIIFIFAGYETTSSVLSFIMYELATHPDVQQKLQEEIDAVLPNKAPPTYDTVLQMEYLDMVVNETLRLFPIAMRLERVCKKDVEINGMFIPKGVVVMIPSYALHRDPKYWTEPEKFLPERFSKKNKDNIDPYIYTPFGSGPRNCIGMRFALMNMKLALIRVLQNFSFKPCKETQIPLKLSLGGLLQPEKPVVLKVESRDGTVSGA
T1 sequence (Q12809 whole entry): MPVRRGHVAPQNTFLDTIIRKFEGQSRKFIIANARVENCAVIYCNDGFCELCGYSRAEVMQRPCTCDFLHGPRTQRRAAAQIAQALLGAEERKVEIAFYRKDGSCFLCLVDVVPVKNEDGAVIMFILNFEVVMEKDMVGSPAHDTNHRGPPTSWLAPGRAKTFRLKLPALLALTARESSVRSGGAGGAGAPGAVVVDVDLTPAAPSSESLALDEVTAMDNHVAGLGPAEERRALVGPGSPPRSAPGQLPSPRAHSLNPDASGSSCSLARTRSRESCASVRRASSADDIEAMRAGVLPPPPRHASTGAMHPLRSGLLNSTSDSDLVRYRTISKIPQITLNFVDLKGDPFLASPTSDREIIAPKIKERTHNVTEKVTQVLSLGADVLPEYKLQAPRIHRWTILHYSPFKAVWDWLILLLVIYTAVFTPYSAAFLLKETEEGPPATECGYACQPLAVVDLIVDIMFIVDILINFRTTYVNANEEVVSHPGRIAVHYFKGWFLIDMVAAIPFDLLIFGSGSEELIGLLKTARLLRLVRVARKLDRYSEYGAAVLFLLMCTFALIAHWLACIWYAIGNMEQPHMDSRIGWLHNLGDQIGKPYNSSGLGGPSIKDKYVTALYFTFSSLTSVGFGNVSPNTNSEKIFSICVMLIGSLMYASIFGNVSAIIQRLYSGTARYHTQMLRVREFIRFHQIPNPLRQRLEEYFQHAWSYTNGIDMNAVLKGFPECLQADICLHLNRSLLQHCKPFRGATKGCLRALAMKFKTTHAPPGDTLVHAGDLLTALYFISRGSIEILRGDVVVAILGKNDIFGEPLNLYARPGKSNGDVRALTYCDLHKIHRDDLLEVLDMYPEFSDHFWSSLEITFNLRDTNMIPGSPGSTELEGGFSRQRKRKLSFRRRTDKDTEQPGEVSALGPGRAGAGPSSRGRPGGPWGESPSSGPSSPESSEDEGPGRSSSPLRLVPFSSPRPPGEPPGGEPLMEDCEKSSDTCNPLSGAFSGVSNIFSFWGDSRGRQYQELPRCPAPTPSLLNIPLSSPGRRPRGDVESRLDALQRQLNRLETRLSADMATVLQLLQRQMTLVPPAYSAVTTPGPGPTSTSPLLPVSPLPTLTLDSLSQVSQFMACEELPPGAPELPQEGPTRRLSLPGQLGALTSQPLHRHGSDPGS

By Ki is commonly meant a measure of affinity in units of concentration, obtained from inhibition or displacement. Usually IC50 stands for the concentration that gives 50% inhibition. As to `Cc1nc(N2C[C@H]3C(=O)N(C)C(=N)N[C@@]3(c3ccc(F)cc3)C2)nc(C)c1F` [Example 28], the Ki in series [1] was 0.064 µM. The IC50 in series [2] is 0.114 µM; at CYP2D6 (setting [5]) it was roughly 30 µM; on CYP2D6 (setting [6]), 23.3 µM; at CYP3A4 (setting [7]), greater than 30 µM; at CYP3A4 (setting [8]), greater than 30 µM; on CYP2C9 (setting [9]), greater than 30 µM. In addition, the IC50 on CYP2C9 (setting [10]) was greater than 30 µM. The inhibition at 30 min, 1.5 uG/mL at hERG [3] came out at 13%. Further, the inhibition at 30 min, 5 uG/mL on hERG [3] came out at 14%.
In the case of `COc1nc(N2C[C@H]3C(=O)N(C)C(N)=N[C@@]3(c3c(F)cc(F)c(F)c3F)C2)nc(C)c1F` [Example 29], the IC50 on CYP2D6 (setting [5]), on CYP2D6 (setting [6]), at CYP2C9 (setting [9]) and at CYP2C9 (setting [10]) was greater than 30 µM each time. Besides, the inhibition at 30 min, 1.5 uG/mL on hERG [3] is -4%. For the same molecule, the inhibition at 30 min, 5 uG/mL at hERG [3] was determined as 3%.
As for `CCc1nc(N2C[C@H]3C(=O)N(C)C(=N)N[C@@]3(c3ccc(F)cc3F)C2)nc(OC)c1F` [Example 32], the Ki in series [1] was 0.0053 µM. Moreover, the IC50 was 0.026 µM in series [2]; greater than 20 µM at CYP2D6 (setting [5]); greater than 20 µM at CYP2D6 (setting [6]); greater than 20 µM on CYP3A4 (setting [7]); greater than 20 µM at CYP3A4 (setting [8]); greater than 20 µM at CYP2C9 (setting [9]). Besides, the IC50 at CYP2C9 (setting [10]) was greater than 20 µM. Moreover, the “CathD Selectivity” value on human liver Cathepsin D was 310. On hERG [4], the inhibition at 5 min, 1 uM worked out at 19%. For the same molecule, the inhibition at 5 min, 10 uM on hERG [4] turned out to be 95%.
In the case of `COc1nc(N2C[C@H]3C(=O)N(C)C(=N)N[C@@]3(c3cc(F)ccc3F)C2)nc(C2CC2)c1F` [Example 34], in series [1], the Ki was 0.0056 µM. Further, the IC50 is 0.086 µM in series [2]; greater than 20 µM at CYP2D6 (setting [5]); greater than 20 µM at CYP2D6 (setting [6]); greater than 20 µM on CYP3A4 (setting [7]); greater than 20 µM on CYP3A4 (setting [8]); greater than 20 µM at CYP2C9 (setting [9]). Also, at CYP2C9 (setting [10]), the IC50 was greater than 20 µM. Further, on human liver Cathepsin D, the “CathD Selectivity” value came to 88. On hERG [4], the inhibition at 5 min, 1 uM is 7%. Besides, the inhibition at 5 min, 10 uM at hERG [4] was 65%.
On to `COc1nc(N2C[C@H]3C(=O)N(C)C(=N)N[C@@]3(c3cc(F)ccc3F)C2)nc(C2CC2)c1Cl` [Example 35], for which the Ki in series [1] was 0.0065 µM. Moreover, the IC50 is 0.09 µM in series [2]; greater than 20 µM at CYP2D6 (setting [5]); greater than 20 µM on CYP2D6 (setting [6]); roughly 20 µM on CYP3A4 (setting [7]); greater than 20 µM at CYP3A4 (setting [8]); roughly 20 µM at CYP2C9 (setting [9]). Also, at CYP2C9 (setting [10]), the IC50 is roughly 20 µM. The “CathD Selectivity” value at human liver Cathepsin D amounted to 634. Further, the inhibition at 5 min, 1 uM on hERG [4] is 5%. In addition, on hERG [4], the inhibition at 5 min, 10 uM came to 23%.
Take `COc1nc(N2C[C@H]3C(=O)N(C)C(=N)N[C@@]3(c3cccc(C#N)c3)C2)nc(C)c1F` [Example 36]: in series [1], the Ki was 0.014 µM. Moreover, the IC50 in series [2] was 0.063 µM; on CYP2D6 (setting [5]), greater than 20 µM; on CYP2D6 (setting [6]) it was greater than 20 µM; on CYP3A4 (setting [7]), greater than 20 µM; on CYP3A4 (setting [8]), greater than 20 µM; at CYP2C9 (setting [9]) it was greater than 20 µM. Besides, the IC50 on CYP2C9 (setting [10]) was greater than 20 µM. Besides, at human liver Cathepsin D, the “CathD Selectivity” value worked out at 1202. Moreover, on hERG [4], the inhibition at 5 min, 1 uM amounted to 3%. On hERG [4], the inhibition at 5 min, 10 uM worked out at 37%.
Regarding `COc1nc(N2C[C@H]3C(=O)N(C)C(=N)N[C@@]3(c3ccc(F)cc3F)C2)nc(C2CC2)c1F` [Example 38], in series [1], the Ki is 0.0027 µM. The half-inhibitory concentration (IC50) in series [2] was 0.031 µM; at CYP2D6 (setting [5]), greater than 20 µM; at CYP2D6 (setting [6]) it was greater than 20 µM; at CYP3A4 (setting [7]) it was greater than 20 µM; at CYP3A4 (setting [8]), greater than 20 µM; at CYP2C9 (setting [9]), greater than 20 µM. In addition, the IC50 on CYP2C9 (setting [10]) was greater than 20 µM. Moreover, at human liver Cathepsin D, the “CathD Selectivity” value is given as 209. The inhibition at 5 min, 1 uM at hERG [4] is 12%. In addition, the inhibition at 5 min, 10 uM at hERG [4] amounted to 63%.
In the case of `COc1nc(N2C[C@H]3C(=O)N(C)C(=N)N[C@@]3(c3ccc(F)cc3F)C2)nc(CO)c1F` [Example 43], the Ki in series [1] was 0.016 µM. The IC50 in series [2] is 0.021 µM; on CYP2D6 (setting [5]), greater than 20 µM; at CYP2D6 (setting [6]), greater than 20 µM; on CYP3A4 (setting [7]), greater than 20 µM; at CYP3A4 (setting [8]), greater than 20 µM; at CYP2C9 (setting [9]), greater than 20 µM. Besides, the IC50 at CYP2C9 (setting [10]) was greater than 20 µM. Moreover, on human liver Cathepsin D, the “CathD Selectivity” value is reported as 116. Moreover, the inhibition at 5 min, 1 uM at hERG [4] worked out at 6%. Besides, the inhibition at 5 min, 10 uM at hERG [4] turned out to be 27%.

The values above are taken from patent publication US8541427B2, “Phenyl-substituted 2-imino-3-methyl pyrrolo pyrimidinone compounds as BACE-1 inhibitors, compositions, and their use” (Merck, Sharp & Dohme, Corp., priority 2008, dated 2013).
